Experimental data as given in ChEMBL document CHEMBL1129398, “Non-peptide glycoprotein IIb/IIIa antagonists. 11. Design and in vivo evaluation of 3,4-dihydro-1 (1H)-isoquinolinone-based antagonists and ethyl ester prodrugs” (J Med Chem, 1996).

Key:
[1] = test system: Canis familiaris; assay: Tmax was measured by calculating maximum time taken for ADP -induced platelet aggregation in canine platelet rich plasma at dose of 0.5 mg/kg po; Tmax hours; type: ADME, organism-based, Canis lupus familiaris; parameters: dose 0.5 mg/kg; settings: dog, in vivo
[2] = test system: Canis familiaris; assay: Effect on inhibition of the extent of ex vivo ADP-induced aggregation in canine platelet rich plasma at dose of 0.5 mg/kg po; type: functional; settings: Canis lupus familiaris
[3] = organism: Homo sapiens; assay: in vitro inhibition of human gel-filtered platelets using ADP agonist; type: functional
[4] = organism: Homo sapiens; assay: in vitro inhibition of human gel-filtered platelets; type: functional
[5] = test system: Canis familiaris; assay: Effect on inhibition of the extent of ex vivo ADP-induced aggregation in canine platelet rich plasma at dose of 0.3 mg/kg po; type: functional; settings: Canis lupus familiaris
[6] = organism: Homo sapiens; assay: In vitro inhibition of human gel-filtered platelets; type: functional
[7] = test system: Canis familiaris; assay: Effect on inhibition of the extent of ex vivo ADP-induced aggregation in canine platelet rich plasma at dose of 0.1 mg/kg po; type: functional; settings: Canis lupus familiaris
[8] = test system: Canis familiaris; assay: Tmax was measured by calculating maximum time taken for ADP -induced plat let aggregation n canine platelet rich plasma at dose of 0.5 mg/kg po; Tmax hours; type: ADME, organism-based, Canis lupus familiaris; parameters: dose 0.5 mg/kg; settings: dog, in vivo

Row | SMILES | inhibition in vivo at 0.5 mg/kg [2] [%] | IC50 [4] [µM] | further results
1 | CCOC(=O)C[C@H](NC(=O)CN1CCc2ccc(N3CCNCC3)cc2C1=O)c1cccnc1 | 75 |  | T max [1]: 2.5
2 | C#C[C@H](CC(=O)O)NC(=O)CN1CCc2ccc(-c3ccncc3)cc2C1=O |  |  | IC50 [3]: 0.16 µM
3 | C#C[C@H](CC(=O)O)NC(=O)CN1CCc2ccc(N3CCNCC3)cc2C1 |  | 0.32 | 
4 | C#C[C@H](CC(=O)OCC)NC(=O)CN1CCc2ccc(C3CCNCC3)cc2C1=O |  |  | inhibition in vivo at 0.3 mg/kg [5]: 40%
5 | C#C[C@H](CC(=O)O)NC(=O)CN1CCc2ccc(N3CCNCC3)cc2C1=O |  | 0.012 | inhibition in vivo at 0.3 mg/kg [5]: 80%
6 | C#C[C@H](CC(=O)O)NC(=O)CN1CCc2ccc(N3CCNCC3)c(Cl)c2C1=O |  | 0.035 | 
7 | C#C[C@H](CC(=O)O)NC(=O)CN1CCc2cc(F)c(N3CCNCC3)cc2C1=O | 95 | 0.015 | 
8 | O=C(O)C[C@H](NC(=O)CN1CCc2ccc(N3CCOCC3)cc2C1=O)c1cccnc1 |  |  | IC50 [3]: > 300 µM
9 | N[C@@H](CNC(=O)CN1CCc2ccc(N3CCNCC3)cc2C1=O)C(=O)O |  | 0.63 | 
10 | C#C[C@H](CC(=O)OCC)NC(=O)CN1CCc2cc(F)c(N3CCNCC3)cc2C1=O |  |  | inhibition in vivo at 0.3 mg/kg [5]: 100%
11 | C#C[C@H](CC(=O)O)NC(=O)Cn1c(=O)[nH]c2ccc(N3CCNCC3)cc2c1=O | 0 |  | IC50 [3]: 0.027 µM
12 | O=C(O)CCNC(=O)CN1CCc2ccc(N3CCNCC3)cc2C1=O |  |  | IC50 [6]: 0.14 µM
13 | C#C[C@H](CC(=O)O)NC(=O)Cn1ccc2ccc(N3CCNCC3)cc2c1=O |  |  | IC50 [3]: 0.081 µM
14 | C#C[C@H](CC(=O)OCC)NC(=O)CN1CCc2ccc(N3CCNCC3)c(Cl)c2C1=O | 100 |  | 
15 | C#C[C@H](CC(=O)O)NC(=O)Cn1cnc2ccc(N3CCNCC3)cc2c1=O |  |  | IC50 [3]: 0.33 µM
16 | O=C(O)C[C@H](NC(=O)CN1CCc2ccc(N3CCNCC3)cc2C1=O)c1ccc[n+]([O-])c1 |  | 0.018 | 
17 | C#C[C@H](CC(=O)O)NC(=O)CN1CCc2ccc(C3CCNCC3)cc2C1=O |  | 0.006 | inhibition in vivo at 0.3 mg/kg [5]: 100%
18 | C#C[C@H](CC(=O)OCC)NC(=O)Cn1c(=O)[nH]c2ccc(N3CCNCC3)cc2c1=O |  |  | inhibition in vivo at 0.1 mg/kg [7]: 0%
19 | O=C(O)C[C@@H](CCc1ccccc1)NC(=O)CN1CCc2ccc(N3CCNCC3)cc2C1=O | 20 | 0.016 | 
20 | O=C(O)C[C@H](NC(=O)CN1CCc2ccc(N3CCNCC3)cc2C1=O)c1cccnc1 | 100 |  | T max [8]: 1; IC50 [3]: 0.013 µM
21 | C[C@H](CC(=O)O)NC(=O)CN1CCc2ccc(N3CCNCC3)cc2C1=O | 100 | 0.03 | 
22 | C#C[C@H](CC(=O)O)NC(=O)CN1CCc2cc(Cl)c(N3CCNCC3)cc2C1=O | 80 | 0.019 | 
